Experimental findings from patent US20250304576A1 (Cancer Research Technology Limited, priority 2022, published 2025) are described below.

For one assay, the target named is T1, Recombinant IKKα (Homo sapiens, UniProt O15111).
T1 construct: purchased Millipore, Dundee, UK
T1 sequence (O15111 1-745): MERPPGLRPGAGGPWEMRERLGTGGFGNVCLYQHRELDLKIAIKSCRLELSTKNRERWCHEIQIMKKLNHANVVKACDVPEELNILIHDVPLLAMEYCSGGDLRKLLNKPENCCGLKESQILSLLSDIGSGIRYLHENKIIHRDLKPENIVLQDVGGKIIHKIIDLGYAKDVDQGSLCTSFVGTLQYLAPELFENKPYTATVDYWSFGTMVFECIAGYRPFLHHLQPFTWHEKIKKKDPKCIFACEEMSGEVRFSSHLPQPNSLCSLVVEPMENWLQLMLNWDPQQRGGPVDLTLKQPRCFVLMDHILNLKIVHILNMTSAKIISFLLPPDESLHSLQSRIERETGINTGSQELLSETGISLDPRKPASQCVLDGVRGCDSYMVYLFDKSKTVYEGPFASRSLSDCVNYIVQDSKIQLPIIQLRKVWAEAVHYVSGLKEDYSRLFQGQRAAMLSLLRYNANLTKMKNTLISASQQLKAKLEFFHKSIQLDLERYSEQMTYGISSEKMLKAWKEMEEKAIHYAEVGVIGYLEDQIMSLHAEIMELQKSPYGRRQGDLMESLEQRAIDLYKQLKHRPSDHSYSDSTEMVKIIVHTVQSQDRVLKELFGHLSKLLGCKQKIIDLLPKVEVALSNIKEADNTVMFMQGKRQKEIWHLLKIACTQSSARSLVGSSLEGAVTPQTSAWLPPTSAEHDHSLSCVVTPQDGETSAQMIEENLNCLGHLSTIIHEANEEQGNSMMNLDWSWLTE
In words: DELFIA IKKα kinase assay (apparent Ki, Cheng-Prusoff). The class given is biochemical. The note with it: DELFIA assay (first line of an example). In outline: (§1)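 DELFIA time-resolved fluorescence (ex 340/em 615 nm) quantified phosphorylation of a biotinylated IκB-α Ser32 peptide (0.375 μM) by 37 nM recombinant IKKα or IKKβ. Reactions used 40 μM ATP, Tris pH 7.5 buffer with MgCl2, DTT and BSA, 60 min at 30° C. Cheng-Prusoff equation gave apparent Ki.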

The target of the next assay is T2, Recombinant IKKβ (Homo sapiens, UniProt O14920).
T2 construct: purchased Millipore, Dundee, UK
T2 sequence (O14920 1-756): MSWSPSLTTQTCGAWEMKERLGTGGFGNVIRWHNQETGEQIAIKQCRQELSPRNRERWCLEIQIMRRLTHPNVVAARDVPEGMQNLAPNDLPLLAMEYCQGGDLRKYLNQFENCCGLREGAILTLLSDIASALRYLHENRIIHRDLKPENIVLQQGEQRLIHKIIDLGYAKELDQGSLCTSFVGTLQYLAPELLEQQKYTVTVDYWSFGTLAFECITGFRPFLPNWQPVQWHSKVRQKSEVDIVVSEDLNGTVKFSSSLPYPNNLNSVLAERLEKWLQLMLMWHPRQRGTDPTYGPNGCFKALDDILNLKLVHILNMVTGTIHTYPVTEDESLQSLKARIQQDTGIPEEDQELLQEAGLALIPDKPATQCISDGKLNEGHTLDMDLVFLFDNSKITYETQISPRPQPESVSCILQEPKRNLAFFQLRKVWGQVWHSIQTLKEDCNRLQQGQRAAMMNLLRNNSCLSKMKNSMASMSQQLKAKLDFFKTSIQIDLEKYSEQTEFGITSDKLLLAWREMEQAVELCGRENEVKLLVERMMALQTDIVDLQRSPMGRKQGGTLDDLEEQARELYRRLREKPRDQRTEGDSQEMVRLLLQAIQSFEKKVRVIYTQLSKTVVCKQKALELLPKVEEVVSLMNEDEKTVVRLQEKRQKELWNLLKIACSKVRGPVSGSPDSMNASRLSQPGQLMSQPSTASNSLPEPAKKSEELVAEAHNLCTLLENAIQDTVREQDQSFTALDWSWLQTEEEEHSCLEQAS
Put plainly: DELFIA IKKβ kinase assay (apparent Ki, Cheng-Prusoff). The note with it: DELFIA assay (first line of an example). The class given is biochemical. The procedure, abridged:
as §1

Take `Cc1coc(Nc2cc(-c3cc(C#CC(C)(C)C)c4[nH]nc(N)c4c3)ccn2)n1` [Example 315, N-(4-(3-Amino-7-(3,3-dimethylbut-1-yn-1-yl)-1H-indazol-5-yl)pyridin-2-yl)-4-methyloxazol-2-amine]: the Ki on Recombinant IKKα amounted to 54 nM; at Recombinant IKKβ, 836 nM.

Turning to `CC(C)(C)C#Cc1cc(-c2ccnc(Nc3nc(C(F)(F)F)co3)c2)cc2c(N)n[nH]c12` [Example 316, N-(4-(3-Amino-7-(3,3-dimethylbut-1-yn-1-yl)-1H-indazol-5-yl)pyridin-2-yl)-4-(trifluoromethyl)oxazol-2-amine], the values for the Ki at Recombinant IKKα and at Recombinant IKKβ were 335 nM and above 30000 nM, respectively.

Take `Cc1noc(C)c1Nc1cc(-c2cc(C#CC(C)(C)C)c3[nH]nc(N)c3c2)ccn1` [Example 317, N-(4-(3-amino-7-(3,3-dimethylbut-1-yn-1-yl)-1H-indazol-5-yl)pyridin-2-yl)-3,5-dimethylisoxazol-4-amine]: the results for the Ki at Recombinant IKKα and on Recombinant IKKβ were 318 nM and 4040 nM, respectively.

In the case of `CC(C)(C)C#Cc1cc(-c2ccnc(Nc3c[nH]cn3)c2)cc2c(N)n[nH]c12` [Example 318, 5-(2-((1H-Imidazol-4-yl)amino)pyridin-4-yl)-7-(3,3-dimethylbut-1-yn-1-yl)-1H-indazol-3-amine], the Ki on Recombinant IKKα worked out at 66 nM; at Recombinant IKKβ it was 502 nM.

Turning to `CC(C)(C)C#Cc1cc(-c2ccnc(Nc3nnc[nH]3)c2)cc2c(N)n[nH]c12` [Example 319, 5-(2-((4H-1,2,4-Triazol-3-yl)amino)pyridin-4-yl)-7-(3,3-dimethylbut-1-yn-1-yl)-1H-indazol-3-amine], the Ki came to 27 nM on Recombinant IKKα and 486 nM at Recombinant IKKβ.

With `Cn1nnc(Nc2cc(-c3cc(C#CC(C)(C)C)c4[nH]nc(N)c4c3)ccn2)n1` [Example 320, 7-(3,3-Dimethylbut-1-yn-1-yl)-5-(2-((2-methyl-2H-tetrazol-5-yl)amino)pyridin-4-yl)-1H-indazol-3-amine], the Ki came to 5 nM on Recombinant IKKα and 18.5 nM at Recombinant IKKβ.

Take `CC(C)(C)C#Cc1cc(-c2ccnc(Nc3ncccn3)c2)cc2c(N)n[nH]c12` [Example 321, 7-(3,3-Dimethylbut-1-yn-1-yl)-5-(2-(pyrimidin-2-ylamino)pyridin-4-yl)-1H-indazol-3-amine]: the Ki was 202 nM at Recombinant IKKα and 4580 nM on Recombinant IKKβ.

As for `CC(C)(C)C#Cc1cc(-c2ccnc(NC3CCOC3)c2)cc2c(N)n[nH]c12` (centres unmarked) [Example 322, 7-(3,3-Dimethylbut-1-yn-1-yl)-5-(2-((tetrahydrofuran-3-yl)amino)pyridin-4-yl)-1H-indazol-3-amine], the Ki on Recombinant IKKα was 45 nM; at Recombinant IKKβ it was 3130 nM.

As for `COC(=O)Nc1cc(-c2cc(-c3ccc(O)cc3)c3[nH]nc(N)c3c2)ccn1` [Example 323, Methyl (4-(3-Amino-7-(4-hydroxyphenyl)-1H-indazol-5-yl)pyridin-2-yl)carbamate], the Ki stood at 9.8 nM at Recombinant IKKα and 83 nM at Recombinant IKKβ.

In the case of `Nc1n[nH]c2c(-c3ccc(O)cc3)cc(-c3ccnc(NC4COC4)c3)cc12` [Example 324, 4-(3-Amino-5-(2-(oxetan-3-ylamino)pyridin-4-yl)-1H-indazol-7-yl)phenol], the results for the Ki on Recombinant IKKα and at Recombinant IKKβ were 8090 nM and 4730 nM, respectively.

As for `COC(=O)Nc1cc(-c2cc(-c3ccc(N)cc3)c3[nH]nc(N)c3c2)ccn1` [Example 325, Methyl (4-(3-amino-7-(4-aminophenyl)-1H-indazol-5-yl)pyridin-2-yl)carbamate], the Ki on Recombinant IKKα amounted to 6 nM; at Recombinant IKKβ it was 79 nM.

With `COC(=O)Nc1cc(-c2cc(-c3ccc(NC(C)=O)cc3)c3[nH]nc(N)c3c2)ccn1` [Example 326, Methyl (4-(7-(4-acetamidophenyl)-3-amino-1H-indazol-5-yl)pyridin-2-yl)carbamate], the Ki on Recombinant IKKα was 14 nM; at Recombinant IKKβ it was 87 nM.

On to `COC(=O)Nc1cc(-c2cc(-c3ccc(C(N)=O)cc3)c3[nH]nc(N)c3c2)ccn1` [Example 327, Methyl (4-(3-amino-7-(4-carbamoylphenyl)-1H-indazol-5-yl)pyridin-2-yl)carbamate], for which the results for the Ki at Recombinant IKKα and on Recombinant IKKβ were 614 nM and 3790 nM, respectively.

As to `COC(=O)Nc1cc(-c2cc(-c3ccc(CN4CCOCC4)cc3)c3[nH]nc(N)c3c2)ccn1` [Example 328, Methyl (4-(3-amino-7-(4-(morpholinomethyl)phenyl)-1H-indazol-5-yl)pyridin-2-yl)carbamate], the Ki stood at 24 nM on Recombinant IKKα and 407 nM at Recombinant IKKβ.

Turning to `Nc1cc(-c2cc(-c3ccc(CCN4CCOCC4)cc3)c3[nH]nc(N)c3c2)ccn1` [Example 329, 5-(2-Aminopyridin-4-yl)-7-(4-(2-morpholinoethyl)phenyl)-1H-indazol-3-amine], the values for the Ki on Recombinant IKKα and at Recombinant IKKβ were 14 nM and 108 nM, respectively.

In the case of `COC(=O)Nc1cc(-c2cc(-c3ccc(CCN4CCOCC4)cc3)c3[nH]nc(N)c3c2)ccn1` [Example 330, Methyl (4-(3-amino-7-(4-(2-morpholinoethyl)phenyl)-1H-indazol-5-yl)pyridin-2-yl)carbamate], the Ki on Recombinant IKKα and at Recombinant IKKβ was above 10000 nM in each case.

`COC(=O)Nc1cc(-c2cc(-c3cccc(CN4CCOCC4)c3)c3[nH]nc(N)c3c2)ccn1` [Example 334, Methyl (4-(3-amino-7-(3-(morpholinomethyl)phenyl)-1H-indazol-5-yl)pyridin-2-yl)carbamate]: the Ki on Recombinant IKKα is 38 nM; on Recombinant IKKβ, 429 nM.

As for `Nc1n[nH]c2ccc(-c3ccnc(NC(=O)CC4CCCCC4)c3)cc12` [Example 335, N-(4-(3-Amino-1H-indazol-5-yl)pyridin-2-yl)-2-cyclohexylacetamide], the Ki at Recombinant IKKα was determined as 340 nM; on Recombinant IKKβ it was 4200 nM.

As for `CC(C)(C)C#Cc1cc(-c2cc(N)ncc2C#N)cc2c(N)n[nH]c12` [Example 336, 6-Amino-4-(3-amino-7-(3,3-dimethylbut-1-yn-1-yl)-1H-indazol-5-yl)nicotinonitrile], the Ki on Recombinant IKKα and at Recombinant IKKβ was above 10000 nM each time.
